Measurements reported in PubChem BioAssay AID1919006 (Molecular Pharmacology Branch, DTP, NCI, 2023).

Test system: 885512-296-R-J2-PDC complex spheroid growth, % test/control
Experiment: Anticancer human tumor 885512-296-R-J2-PDC patient-derived breast carcinoma cell line growth inhibition [AhR]
Conditions: for IC50: curve of first compound; for viability, T/C: stronger effect = lower value
Text: Multicellular complex tumor spheroid response to aryl hydrocarbon receptor antagonists in combination with a variety of drugs and investigational agents in selected tumor cell lines
The current study was undertaken to assess response to aryl hydrocarbon receptor antagonists in combination with standard-of-care drugs and investigational agents in solid tumor complex spheroid models. Complex spheroids include a stromal component modeled by human endothelial cells (HUVEC) and fibroblasts modeled by human mesenchymal stem cells (MSCs). The concentration ranges selected for each drug and investigational agent were based upon clinically achievable concentrations if the clinical Cmax of the agent was known.
Compounds. The drugs and investigational agents: BAY 2416964 (NSC825713), GNF351 (NSC835774), CH-223191 (NSC835775), CPI-455 (NSC825282), aza-TdCyd (NSC777586), decitabine (NSC127716), belinostat (NSC758774), entinostat (NSC756642), pevonedistat (NSC761192), tazemetostat (NSC777109), talazoparib (NSC765396), olaparib (NSC753686), selinexor (NSC780203), nedisertib (M3814, NSC802822), bortezomib (NSC756655), venetoclax (NSC766270), doxorubicin (NSC123127), elimusertib (BAY189344, NSC800525), ceralasertib (AZD6738, NSC777638), TAK-243 (NSC785004), alisertib (NSC759677), etoposide (NSC141540), topotecan (NSC609699), eribulin (NSC707389), gemcitabine (NSC613327), carboplatin (NSC241240), cisplatin (NSC119875), and SN-38 (NSC673596) were obtained from the National Cancer Institute (NCI) Developmental Therapeutics Program Chemical Repository (32). The FDA-approved anticancer drug set is available from the Developmental Therapeutics Program at https://dtp.cancer.gov/organization/dscb/obtaining/available plates.htm. […] The stock solutions were prepared in dimethyl sulfoxide (DMSO, Sigma-Aldrich, St. Louis, MO, cat. D2650), except for the platinum compounds which were prepared in saline (Quality Biological, Gaithersburg, MD, cat. 114-055-101), at 800-fold the tested concentration and stored at -70 degrees C prior to their use. All drugs and investigational agents were tested over a range starting from a high concentration at or near the clinical Cmax and decreasing in half-log increments. If the clinical Cmax for an agent had not been determined, the highest concentration tested was 10 microM (Table 1).
Cell Culture. All cells were maintained in an incubator at 37 degrees C and 5% CO2 with 95% humidity. The PDC lines were cultured according to standard operating procedures established by the NCI PDMR (https://pdmr.cancer.gov). Briefly, all PDCs were thawed and cultured in Matrigel-coated flasks prepared with a working solution of 1X Ham's F-12 nutrient mix, without supplementation (Invitrogen, Waltham, MA, cat. 11765054), 100 U/mL penicillin-streptomycin (Invitrogen, cat. 15140122), and 2.5% Matrigel (Corning Inc., Corning, NY, cat. 354248) for the first three passages. All PDCs were cultured in complete DMEM/F-12 media containing advanced DMEM/F-12 (Invitrogen, cat. 12634028), 4.9% defined fetal bovine serum, heat inactivated (HyClone Laboratories Inc., Logan, UT, cat. SH30070.03HI), 389 ng/mL hydrocortisone (Sigma-Aldrich, cat. H4001), 9.7 ng/mL human EGF recombinant protein (Invitrogen, cat. PHG0313), 23.4 microg/mL adenine (Sigma-Aldrich, cat. A2786), 97.3 U/mL penicillin-streptomycin (Invitrogen, cat. 15140122), 1.9 mM L-glutamine (Invitrogen, cat. 25030081), and 9.7 microM Y-27632 dihydrochloride (Tocris Bioscience, Bristol, United Kingdom, cat. 1254). The PDCs were cultured in complete DMEM/F12 media without 10 microM Y-27632 dihydrochloride for at least two passages prior to the screen. The established cell lines NCI-H1341 and […] were cultured in DMEM/F-12, HEPES (Invitrogen, cat. 11330032), 5% defined fetal bovine serum (HyClone Laboratories Inc., cat. SH30070.03), ITS premix universal culture supplement [insulin (5 microg/mL), transferrin (5 microg/mL), and selenious acid (5 ng/mL)] […]
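Note: spheroids exposed to compounds for seven days.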

Work on `CCc1c2c(nc3ccc(O)cc13)-c1cc3c(c(=O)n1C2)COC(=O)[C@]3(O)CC` + Cc1ccccc1N=Nc1ccc(NC(=O)c2ccnn2C)c(C)c1 yielded an IC50 (second compound 0.1 µM) of less than 0.000949 µM, an IC50 (second compound 0.316 µM) of less than 0.000949 µM and an IC50 (second compound 1 µM) of less than 0.000949 µM. For the same molecule, the IC50 (second compound 3.16 µM) was less than 0.000949 µM, the IC50 (second compound 10 µM) was less than 0.000949 µM and the viability, T/C (second compound 0.1 µM, first compound 0.000949 µM) was 15.3%. The viability, T/C (second compound 0.1 µM, first compound 0.003 µM) was 7.41%, the viability, T/C (second compound 0.1 µM, first compound 0.00949 µM) was 6.43% and the viability, T/C (second compound 0.1 µM, first compound 0.03 µM) was 4.14%. The viability, T/C (second compound 0.1 µM, first compound 0.0949 µM) was 1.83%, the viability, T/C (second compound 0.1 µM, first compound 0.3 µM) was 1.03% and the viability, T/C (second compound 0.316 µM, first compound 0.000949 µM) was 17.7%. The viability, T/C (second compound 0.316 µM, first compound 0.003 µM) was 7.53%, the viability, T/C (second compound 0.316 µM, first compound 0.00949 µM) was 5.71% and the viability, T/C (second compound 0.316 µM, first compound 0.03 µM) was 3.77%. It also gave a viability, T/C (second compound 0.316 µM, first compound 0.0949 µM) of 1.78%, a viability, T/C (second compound 0.316 µM, first compound 0.3 µM) of 1.57% and a viability, T/C (second compound 1 µM, first compound 0.000949 µM) of 16.8%. It also gave a viability, T/C (second compound 1 µM, first compound 0.003 µM) of 6.58%, a viability, T/C (second compound 1 µM, first compound 0.00949 µM) of 5.11% and a viability, T/C (second compound 1 µM, first compound 0.03 µM) of 4.84%. The viability, T/C (second compound 1 µM, first compound 0.0949 µM) was 2.6%, the viability, T/C (second compound 1 µM, first compound 0.3 µM) was 1.23% and the viability, T/C (second compound 3.16 µM, first compound 0.000949 µM) was 17.2%. It also gave a viability, T/C (second compound 3.16 µM, first compound 0.003 µM) of 6.69%, a viability, T/C (second compound 3.16 µM, first compound 0.00949 µM) of 5.43% and a viability, T/C (second compound 3.16 µM, first compound 0.03 µM) of 4.44%. For the same molecule, the viability, T/C (second compound 3.16 µM, first compound 0.0949 µM) was 2.64%, the viability, T/C (second compound 3.16 µM, first compound 0.3 µM) was 1.47% and the viability, T/C (second compound 10 µM, first compound 0.000949 µM) was 14.9%. The viability, T/C (second compound 10 µM, first compound 0.003 µM) was 7.42%, the viability, T/C (second compound 10 µM, first compound 0.00949 µM) was 5.87% and the viability, T/C (second compound 10 µM, first compound 0.03 µM) was 3.54%. The viability, T/C (second compound 10 µM, first compound 0.0949 µM) was 2.17% and the viability, T/C (second compound 10 µM, first compound 0.3 µM) was 1.29%.
`CC1(C)CCC(CN2CCN(c3ccc(C(=O)NS(=O)(=O)c4ccc(NCC5CCOCC5)c([N+](=O)[O-])c4)c(Oc4cnc5[nH]ccc5c4)c3)CC2)=C(c2ccc(Cl)cc2)C1` + CC(CO)NC(=O)c1cc(-c2ccc(Cl)cc2)nn(-c2cnn(C)c2)c1=O showed an IC50 (second compound 0.1 µM) of 6.34 µM, an IC50 (second compound 0.316 µM) of 7.19 µM and an IC50 (second compound 1 µM) of 7.58 µM. It also gave an IC50 (second compound 3.16 µM) of 7.84 µM, an IC50 (second compound 10 µM) of 8.44 µM and a viability, T/C (second compound 0.1 µM, first compound 0.0316 µM) of 111%. For the same molecule, the viability, T/C (second compound 0.1 µM, first compound 0.1 µM) was 105%, the viability, T/C (second compound 0.1 µM, first compound 0.316 µM) was 102% and the viability, T/C (second compound 0.1 µM, first compound 1 µM) was 91.7%. It also gave a viability, T/C (second compound 0.1 µM, first compound 3.16 µM) of 70.7%, a viability, T/C (second compound 0.1 µM, first compound 10 µM) of 36.4% and a viability, T/C (second compound 0.316 µM, first compound 0.0316 µM) of 96.3%. The viability, T/C (second compound 0.316 µM, first compound 0.1 µM) was 111%, the viability, T/C (second compound 0.316 µM, first compound 0.316 µM) was 100% and the viability, T/C (second compound 0.316 µM, first compound 1 µM) was 96.5%. For the same molecule, the viability, T/C (second compound 0.316 µM, first compound 3.16 µM) was 70.6%, the viability, T/C (second compound 0.316 µM, first compound 10 µM) was 41.7% and the viability, T/C (second compound 1 µM, first compound 0.0316 µM) was 96.7%. It also gave a viability, T/C (second compound 1 µM, first compound 0.1 µM) of 108%, a viability, T/C (second compound 1 µM, first compound 0.316 µM) of 112% and a viability, T/C (second compound 1 µM, first compound 1 µM) of 99.7%. It also gave a viability, T/C (second compound 1 µM, first compound 3.16 µM) of 78.6%, a viability, T/C (second compound 1 µM, first compound 10 µM) of 41% and a viability, T/C (second compound 3.16 µM, first compound 0.0316 µM) of 102%. The viability, T/C (second compound 3.16 µM, first compound 0.1 µM) was 118%, the viability, T/C (second compound 3.16 µM, first compound 0.316 µM) was 103% and the viability, T/C (second compound 3.16 µM, first compound 1 µM) was 100%. For the same molecule, the viability, T/C (second compound 3.16 µM, first compound 3.16 µM) was 81.5%, the viability, T/C (second compound 3.16 µM, first compound 10 µM) was 41.6% and the viability, T/C (second compound 10 µM, first compound 0.0316 µM) was 106%. The viability, T/C (second compound 10 µM, first compound 0.1 µM) was 99.4%, the viability, T/C (second compound 10 µM, first compound 0.316 µM) was 103% and the viability, T/C (second compound 10 µM, first compound 1 µM) was 103%. The viability, T/C (second compound 10 µM, first compound 3.16 µM) was 90.8% and the viability, T/C (second compound 10 µM, first compound 10 µM) was 42.6%.
